Assay results published in patent US12338249B2, “Crystalline forms of N-(4-(1-(2,6-difluorobenzyl)-5-((dimethylamino)methyl)-3-(6-methoxy-3-pyridazinyl)-2,4-dioxo-1,2,3,4-tetrahydrothieno[2,3-d]pyrimidin-6-yl)phenyl)-N′-methoxyurea” (Sumitomo Pharma Switzerland GmbH, priority 2019, dated 2025).

Assay: Thermodynamic aqueous solubility of crystalline Forms I and II of Compound 1 (HPLC)
Format: physicochemical
Procedure: Substance contents in test solutions were measured using HPLC Prominence/PDA detector (Shimadzu Corporation). The analytical conditions and calculation formula were as follows: […]
The thermodynamic solubility of Forms I and II was determined at pH 1.2 and pH 6.8 and in 20 mM GCDC, pH 6.8 at 37° C. with an equilibrium period for 2, 6 and 24 hours.

[1] = 20 mM GCDC (sodium glycochenodeoxycholate), pH 6.8, 37° C., 2 hrs equilibrium, average n=3
[2] = 20 mM GCDC (sodium glycochenodeoxycholate), pH 6.8, 37° C., 6 hrs equilibrium, average n=3
[3] = 20 mM GCDC (sodium glycochenodeoxycholate), pH 6.8, 37° C., 24 hrs equilibrium, average n=3
[4] = pH 6.8, 37° C., 2 hrs equilibrium, average n=3
[5] = pH 6.8, 37° C., 6 hrs equilibrium, average n=3
[6] = pH 6.8, 37° C., 24 hrs equilibrium, average n=3

SMILES | Aqueous Solubility [1] [µg/mL] | Aqueous Solubility [2] [µg/mL] | Aqueous Solubility [3] [µg/mL] | Solubility compared between Form I and Form II (in words) (20 mM GCDC, pH 6.8, 37° C.) | Aqueous Solubility (pH 1.2, 37° C., 2 hrs equilibrium, average n=3) [µg/mL] | Aqueous Solubility (pH 1.2, 37° C., 6 hrs equilibrium, average n=3) [µg/mL] | Aqueous Solubility (pH 1.2, 37° C., 24 hrs equilibrium, average n=3) [µg/mL] | Solubility compared between Form I and Form II (in words) (pH 6.8, 37° C.) | Aqueous Solubility [4] [µg/mL] | Aqueous Solubility [5] [µg/mL] | Aqueous Solubility [6] [µg/mL] | Aqueous solubility compared between Form II and Form I (in words) (37° C., overall comparison of Tables 3 and 4) | solubility at 2 h (aqueous solution, pH 1.2, 37 °C, pH 1.2, simulated gastric fluid, thermodynamic from solid, 2 hrs equilibrium, average n=3) [µg/mL] | solubility at 6 h (aqueous solution, pH 1.2, 37 °C, pH 1.2, simulated gastric fluid, thermodynamic from solid, 6 hrs equilibrium, average n=3) [µg/mL] | solubility at 24 h (aqueous solution, pH 1.2, 37 °C, pH 1.2, simulated gastric fluid, thermodynamic from solid, 24 hrs equilibrium, average n=3) [µg/mL] | Solubility compared between Form I and Form II (in words) (pH 6.8, 37° C., listed as Form II of Compound 1)
CONC(=O)Nc1ccc(-c2sc3c(c2CN(C)C)c(=O)n(-c2ccc(OC)nn2)c(=O)n3Cc2c(F)cccc2F)cc1 [Form I, N-(4-(1-(2,6-difluorobenzyl)-5-((dimethylamino)methyl)-3-(6-methoxy-3-pyridazinyl)-2,4-dioxo-1,2,3,4-tetrahydrothieno[2,3-d]pyrimidin-6-yl)phenyl)-N′-methoxyurea] | 960 | 980 | 970 | lower solubility than Form II | >10000 | >10000 | >10000 | lower solubility than Form II | 80 | 80 | 70 | – | – | – | – | –
CONC(=O)Nc1ccc(-c2sc3c(c2CN(C)C)c(=O)n(-c2ccc(OC)nn2)c(=O)n3Cc2c(F)cccc2F)cc1 [Form II, N-(4-(1-(2,6-difluorobenzyl)-5-((dimethylamino)methyl)-3-(6-methoxy-3-pyridazinyl)-2,4-dioxo-1,2,3,4-tetrahydrothieno[2,3-d]pyrimidin-6-yl)phenyl)-N′-methoxyurea] | 2750 | 3300 | 4120 | – | – | – | – | – | 520 | 510 | 520 | more soluble than Form I of Compound 1 | > 10000 | > 10000 | > 10000 | higher aqueous solubility
